Patent US20170325452A1, “Active compound combinations” (BAYER CROPSCIENCE AKTIENGESELLSCHAFT, priority 2014, published 2017)

Legend:
Uromyces appendiculatus = test: in vivo preventive test on Uromyces test (beans); conditions: single active compound, the 7th table
From the text: (§1) A synergistic effect of fungicides is always present when the fungicidal activity of the active compound combinations exceeds the total of the activities of the active compounds when applied individually. The expected activity for a given combination of two active compounds can be calculated as follows (cf. Colby, S. R., “Calculating Synergistic and Antagonistic Responses of Herbicide Combinations”, Weeds 1967, 15, 20-22):
(§2) • X is the efficacy when active compound A is applied at an application rate of m ppm (or g/ha), • Y is the efficacy when active compound B is applied at an application rate of n ppm (or g/ha), • E is the efficacy when the active compounds A and B are applied at application rates of m and n ppm (or g/ha), respectively, and then
(§3) The degree of efficacy, expressed in % is denoted. 0% means an efficacy which corresponds to that of the control while an efficacy of 100% means that no disease is observed.
Example: In Vivo Preventive Test on Uromyces Test (Beans)
(§4) • Solvent: 24.5 parts by weight of acetone • 24.5 parts by weight of dimethylacetamide • Emulsifier: 1 part by weight of alkylaryl polyglycol ether
To produce a suitable preparation of active compound, 1 part by weight of active compound is mixed with the stated amounts of solvent and emulsifier, and the concentrate is diluted with water to the desired concentration. To test for preventive activity, young plants are sprayed with the preparation of active compound at the stated rate of application. After the spray coating has dried on, the plants are inoculated with an aqueous spore suspension of the causal agent of bean rust (Uromyces appendiculatus) and then remain for 1 day in an incubation cabinet at approximately 20° C. and a relative atmospheric humidity of 100%. The plants are then placed in a greenhouse at approximately 21° C. and a relative atmospheric humidity of approximately 90%.
(§5) The test is evaluated 10 days after the inoculation. 0% means an efficacy which corresponds to that of the untreated control, while an efficacy of 100% means that no disease is observed.

Venturia inaequalis = test: in vivo preventive test on Venturia test (apples); conditions: single active compound
From the text: as §1, §2, §3
Example: In Vivo Preventive Test on Venturia Test (Apples)
as §4
(§6) To produce a suitable preparation of active compound, 1 part by weight of active compound is mixed with the stated amounts of solvent and emulsifier, and the concentrate is diluted with water to the desired concentration.
(§7) To test for preventive activity, young plants are sprayed with the preparation of active compound at the stated rate of application. After the spray coating has dried on, the plants are inoculated with an aqueous conidia suspension of the causal agent of apple scab (Venturia inaequalis) and then remain for 1 day in an incubation cabinet at approximately 20° C. and a relative atmospheric humidity of 100%.
The plants are then placed in a greenhouse at approximately 21° C. and a relative atmospheric humidity of approximately 90%.
as §5

Phakopsora pachyrhizi = test: in vivo preventive test on Phakopsora test (soybeans); conditions: single active compound
From the text: as §1, §2, §3
Example: In Vivo Preventive Test on Phakopsora Test (Soybeans)
as §4, §6
as §7, with “spore” for “conidia”, “soybean rust (Phakopsora pachyrhizi)” for “apple scab (Venturia inaequalis)”, “stay” for “then remain”, “24 h without light” for “1 day”, “24°” for “20°”, “95%.” for “100%.”
The plants remain in the incubation cabinet at approximately 24° C. and a relative atmospheric humidity of approximately 80% and a day/night interval of 12 h.
The test is evaluated 7 days after the inoculation. 0% means an efficacy which corresponds to that of the untreated control, while an efficacy of 100% means that no disease is observed.

Botrytis cinerea = test: in vivo preventive test on Botrytis test (beans); conditions: single active compound, the 3rd table
From the text: as §1, §2, §3
Example: In Vivo Preventive Test on Botrytis Test (Beans)
as §4, §6
To test for preventive activity, young plants are sprayed with the preparation of active compound. After the spray coating has dried on, 2 small pieces of agar covered with growth of Botrytis cinerea are placed on each leaf. The inoculated plants are placed in a darkened chamber at 20° C. and a relative atmospheric humidity of 100%.
2 days after the inoculation, the size of the lesions on the leaves is evaluated. 0% means an efficacy which corresponds to that of the untreated control, while an efficacy of 100% means that no disease is observed.

Alternaria solani = test: in vivo preventive test on Alternaria test (tomatoes); conditions: single active compound
From the text: as §1, §2, §3
Example: In Vivo Preventive Test on Alternaria Test (Tomatoes)
as §4, §6
as §7, with “spore” for “conidia”, “Alternaria solani. The plants are” for “the causal agent of apple scab (Venturia inaequalis) and”, “placed” for “remain for 1 day”
The test is evaluated 3 days after the inoculation. 0% means an efficacy which corresponds to that of the untreated control while an efficacy of 100% means that no disease is observed.

SMILES: CCCC1CC(C)(C)c2cccc(NC(=O)c3cccnc3C(F)F)c21 (stereo not drawn) [(I-5), 2-(difluoromethyl)-N-(1,1-dimethyl-3-propyl-2,3-dihydro-1H-inden-4-yl)nicotinamide]
- Efficacy in % found (Uromyces appendiculatus; 0.25 ppm a.i.): 93%
- Efficacy in % found (Venturia inaequalis; 1 ppm a.i., the 10th table): 10%

SMILES: CCC1CC(C)(C)c2cccc(NC(=O)c3cccnc3C(F)F)c21 (stereo not drawn) [(I-3), 2-(difluoromethyl)-N-(3-ethyl-1,1-dimethyl-2,3-dihydro-1H-inden-4-yl)nicotinamide]
- Efficacy in % found (Phakopsora pachyrhizi; 0.5 ppm a.i., the 6th table): 28%
- Efficacy in % found (Phakopsora pachyrhizi; 1 ppm a.i., the 6th table): 38%
- Efficacy in % found (Venturia inaequalis; 0.25 ppm a.i., the 8th table): 10%
- Efficacy in % found (Venturia inaequalis; 1 ppm a.i., the 8th table): 13%
- Efficacy in % found (Venturia inaequalis; 1 ppm a.i., the 10th table): 15%

SMILES: CC[C@@H]1CC(C)(C)c2cccc(NC(=O)c3cccnc3C(F)F)c21 [(I-4), 2-(difluoromethyl)-N-[(3R)-3-ethyl-1,1-dimethyl-2,3-dihydro-1H-inden-4-yl]nicotinamide]
- Efficacy in % found (Phakopsora pachyrhizi; 0.5 ppm a.i., the 4th table): 87%
- Efficacy in % found (Phakopsora pachyrhizi; 1 ppm a.i., the 4th table): 87%
- Efficacy in % found (Botrytis cinerea; 0.5 ppm a.i.): 15%
- Efficacy in % found (Venturia inaequalis; 0.25 ppm a.i., the 8th table): 10%
- Efficacy in % found (Venturia inaequalis; 1 ppm a.i., the 10th table): 37%

SMILES: CON=C(C(=O)OC)c1ccccc1CON=C(C)c1cccc(C(F)(F)F)c1 [1.22, trifloxystrobin]
- Efficacy in % found (Phakopsora pachyrhizi; 0.25 ppm a.i., the 6th table): 0%
- Efficacy in % found (Phakopsora pachyrhizi; 0.5 ppm a.i., the 6th table): 0%
- Efficacy in % found (Phakopsora pachyrhizi; 1 ppm a.i., the 6th table): 0%
- Efficacy in % found (Uromyces appendiculatus; 0.25 ppm a.i.): 0%
- Efficacy in % found (Uromyces appendiculatus; 1 ppm a.i.): 0%
- Efficacy in % found (Venturia inaequalis; 0.25 ppm a.i., the 10th table): 0%
- Efficacy in % found (Venturia inaequalis; 0.5 ppm a.i., the 10th table): 5%
- Efficacy in % found (Venturia inaequalis; 1 ppm a.i., the 10th table): 5%
- Efficacy in % found (Alternaria solani; 0.25 ppm a.i., the 1st table): 8%
- Efficacy in % found (Alternaria solani; 0.5 ppm a.i., the 1st table): 24%
- Efficacy in % found (Alternaria solani; 1 ppm a.i., the 1st table): 35%

SMILES: CO/C=C(/C(=O)OC)c1ccccc1COc1cccc(C(F)(F)F)n1 [1.16, picoxystrobin]
- Efficacy in % found (Phakopsora pachyrhizi; 0.25 ppm a.i., the 4th table): 0%
- Efficacy in % found (Phakopsora pachyrhizi; 0.25 ppm a.i., the 5th table): 0%
- Efficacy in % found (Phakopsora pachyrhizi; 0.5 ppm a.i., the 4th table): 24%
- Efficacy in % found (Phakopsora pachyrhizi; 0.5 ppm a.i., the 5th table): 0%
- Efficacy in % found (Phakopsora pachyrhizi; 1 ppm a.i., the 4th table): 9%
- Efficacy in % found (Phakopsora pachyrhizi; 1 ppm a.i., the 5th table): 62%
- Efficacy in % found (Botrytis cinerea; 0.25 ppm a.i.): 40%
- Efficacy in % found (Botrytis cinerea; 0.5 ppm a.i.): 40%
- Efficacy in % found (Venturia inaequalis; 0.5 ppm a.i., the 9th table): 13%
- Efficacy in % found (Alternaria solani; 0.25 ppm a.i., the 1st table): 30%
- Efficacy in % found (Alternaria solani; 0.25 ppm a.i., the 2nd table): 8%
- Efficacy in % found (Alternaria solani; 0.5 ppm a.i., the 1st table): 30%
- Efficacy in % found (Alternaria solani; 0.5 ppm a.i., the 2nd table): 8%
- Efficacy in % found (Alternaria solani; 1 ppm a.i., the 1st table): 50%
- Efficacy in % found (Alternaria solani; 1 ppm a.i., the 2nd table): 35%

SMILES: CO/C=C(/C(=O)OC)c1ccccc1Oc1cc(Oc2ccccc2C#N)ncn1 [1.3, azoxystrobin]
- Efficacy in % found (Phakopsora pachyrhizi; 0.25 ppm a.i., the 4th table): 0%
- Efficacy in % found (Phakopsora pachyrhizi; 0.25 ppm a.i., the 5th table): 16%
- Efficacy in % found (Phakopsora pachyrhizi; 0.5 ppm a.i., the 4th table): 18%
- Efficacy in % found (Phakopsora pachyrhizi; 0.5 ppm a.i., the 5th table): 41%
- Efficacy in % found (Botrytis cinerea; 0.25 ppm a.i.): 30%
- Efficacy in % found (Botrytis cinerea; 0.5 ppm a.i.): 15%
- Efficacy in % found (Venturia inaequalis; 0.5 ppm a.i., the 8th table): 25%
- Efficacy in % found (Venturia inaequalis; 0.5 ppm a.i., the 9th table): 88%
- Efficacy in % found (Venturia inaequalis; 1 ppm a.i., the 8th table): 30%
- Efficacy in % found (Venturia inaequalis; 1 ppm a.i., the 9th table): 94%
- Efficacy in % found (Alternaria solani; 0.25 ppm a.i., the 1st table): 45%
- Efficacy in % found (Alternaria solani; 0.25 ppm a.i., the 2nd table): 35%
- Efficacy in % found (Alternaria solani; 0.5 ppm a.i., the 1st table): 35%
- Efficacy in % found (Alternaria solani; 0.5 ppm a.i., the 2nd table): 8%
- Efficacy in % found (Alternaria solani; 1 ppm a.i., the 1st table): 65%
- Efficacy in % found (Alternaria solani; 1 ppm a.i., the 2nd table): 15%

SMILES: CCC[C@@H]1CC(C)(C)c2cccc(NC(=O)c3cccnc3C(F)F)c21 [(I-6), 2-(difluoromethyl)-N-[(3R)-1,1-dimethyl-3-propyl-2,3-dihydro-1H-inden-4-yl]nicotinamide]
- Efficacy in % found (Phakopsora pachyrhizi; 0.25 ppm a.i., the 5th table): 95%
- Efficacy in % found (Phakopsora pachyrhizi; 1 ppm a.i., the 5th table): 93%
- Efficacy in % found (Alternaria solani; 0.5 ppm a.i., the 1st table): 30%
